Results from patent EP0302423A2, “1-Phenyl-3-(1-piperazinyl)-1h-indazoles, a process and intermediates for their preparation, and the use thereof as medicaments” (HOECHST-ROUSSEL PHARMACEUTICALS INCORPORATED, priority 1987, dated 1989).
Where a name gives a salt, the structure may show the parent alone. Read-outs that look alike come from different tables or passages of the source.

Assays:
Type in all cases: in vivo
mice [1] = assay: tetrabenazine induced ptosis assay in mice (antidepressant activity); details: for ED50: Mus musculus, ip, i.p. dose effecting calculated 50% inhibition of tetrabenazine-induced ptosis in mice, read-out: ANTI-DEPRESSANT ACTIVITY (% Inhibition of Ptosis) ED50 (mg/kg,i.p.)
Protocol: In this procedure, male mice (Charles River, CD-1), weighing about 20 to 39 g, are used in test groups of five animals. Test compounds are dissolved, or suspended with 1 drop of Tween-80, in distilled water and administered to the animals in volumes of 10 cc per kg of body weight. […] Tetrabenazine solution and the solvent used to dissolve, or suspend, the test compounds are administered by the same route and at the same intervals as the test compounds to a control group. […] The total score for each group of 5 animals will therefore vary from 0 to 20; these scores are used as the indications of the activity of the test compound. The vehicle-control group score is used as a determinate of the validity of each test.

male mouse = assay: supramaximal electroshock (SES) assay (anticonvulsant activity); details: for ED50: ip, read-out: ANTICONVULSANT ACTIVITY (% Inhibition of Convulsion) ED50 (mg/kg,i.p.)
mice [2] = assay: phenyl-p-benzoquinone writhing assay in mice (analgesia); details: Mus musculus, sc
[3] = male mouse, at peak activity time, protection against extensor tonus
[4] = calculated s.c. dose effecting approximately 50% inhibition of writhing in mice, at peak time, read-out: ANALGESIC ACTIVITY (% Inhibition of Writhing) ED50
[5] = read-out: ANALGESIC ACTIVITY (% Inhibition of Writhing) ED50 (mg/kg)

Work on Fc1ccc(-n2nc(N3CCNCC3)c3ccccc32)cc1 [1-(4-Fluorophenyl)-3-(1-piperazinyl)-1H-indazole] yielded an ED50 (mice [1]) of 17.3 mg/kg.

In the case of CN1CCN(c2nn(-c3ccc(F)cc3)c3ccccc23)CC1.O=C(O)/C=C/C(=O)O [1-(4-Fluorophenyl)-3-(4-methyl-1-piperazinyl)-1H-indazole fumarate], the “% inhibition of ptosis at indicated screening dosage (i.p.)” value (mice [1]; 20 mg/kg, i.p., mice) is reported as 65% @ 20 mg/kg*, the ED50 (male mouse; [3]) is reported as 12.9 mg/kg and the ED50 (mice [2]; [4]) is reported as 0.8 mg/kg.

For c1ccc(-n2nc(N3CCNCC3)c3ccccc32)cc1 [1-Phenyl-3-(1-piperazinyl)-1H-indazole hydrocloride], the ED50 (mice [1]) was 25.4 mg/kg, the “% inhibition of convulsions at indicated dosage” value (male mouse; 60 mg/kg, i.p., male mouse) was 100% @ 60 mg/kg* and the ED50 (mice [2]; [4]) was 0.7 mg/kg.

CN1CCN(c2nn(-c3ccccc3)c3ccccc23)CC1.Cl [1-Phenyl-3-(4-methyl-1-piperazinyl)-1H-indazole hydrochloride] was tested, and the ED50 (mice [1]) was 11.1 mg/kg, the ED50 (male mouse; [3]) was 14.6 mg/kg and the ED50 (mice [2]; [4]) was 1.6 mg/kg.

Compound CCN1CCN(c2nn(-c3ccc(C(F)(F)F)cc3)c3ccccc23)CC1 [3-(4-Ethyl-1-piperazinyl)-1-[4-trifluoromethyl)phenyl]-1H-indazole fumarate] has an ED50 (male mouse; [3]) of 8.2 mg/kg.

With CN1CCN(c2nn(-c3ccc(C(F)(F)F)cc3)c3ccccc23)CC1.O=C(O)/C=C/C(=O)O [3-(4-Methyl-1-piperazinyl)-1-[4-(trifluoromethyl)phenyl]-1H-indazole fumarate] the ED50 (male mouse; [3]) was 27 mg/kg.

CP(C)(=O)CN1CCN(c2nn(-c3ccccc3)c3ccccc23)CC1 [3-[4-(Dimethylphosphinylmethyl)-1-piperazinyl]-1-phenyl-1H-indazole] showed an ED50 (male mouse; [3]) of 24.3 mg/kg.

NC(=O)N1CCN(c2nn(-c3ccccc3Cl)c3ccccc23)CC1 [4-[1-(2-chlorophenyl)-1H-indazol-3-yl]-1-piperazine carboxamide hemifumarate] was tested, and the ED50 (male mouse; [3]) was 38.9 mg/kg.

Compound NC(=O)N1CCN(c2nn(-c3ccc(F)cc3)c3ccccc23)CC1 [4-[1-(4-Fluorophenyl)-1H-indazol-3-yl]-1-piperazine carboxamide] has an ED50 (male mouse; [3]) of 22.7 mg/kg.

Compound CN(C)CCC=C1c2ccccc2CCc2ccccc21 [amitriptyline, reference compound] has an ED50 (mice [1]) of 1.5 mg/kg.

In the case of CN(C)CCCN1c2ccccc2CCc2ccccc21 [imipramine, reference compound], the ED50 (mice [1]; read-out: ANTI-[…] (% Inhibition of Ptosis) ED50 (mg/kg,i.p.)) is reported as 1.3 mg/kg.

CC(C)=CCN1CCC2(C)c3cc(O)ccc3CC1C2C (centres unmarked) [pentazocine, reference compound] was tested, and the ED50 (mice [2]; [5]) was 1.3 mg/kg.

For CCC1(c2ccccc2)C(=O)NC(=O)NC1=O [phenobarbitol, reference compound], the ED50 (male mouse; Mus musculus) was 8.4 mg/kg.

With CCC(=O)O[C@](Cc1ccccc1)(c1ccccc1)[C@H](C)CN(C)C [propoxyphene, reference compound] the ED50 (mice [2]; [5]) was 3.9 mg/kg.
